Results: US5420122A, “3-pyrrolidinylthio-1-azabicyclo-[3.2.0]hept-2-ene-2-carboxylic acid compounds” (Fujisawa Pharmaceutical Co., Ltd., priority 1986, dated 1995)
Converted amounts (≈) assume the structure as drawn.

Test system: Proteus vulgaris 49
Assay: in vitro antimicrobial activity, two-fold agar-plate dilution method (MIC)
Type: cell-based
Settings: heart infusion agar, 37° C., 20 hours, 10^6 viable cells per ml
Experimental: in vitro Antimicrobial Activity
in vitro Antimicrobial Activity was determined by the two-fold agar-plate dilution method as described below.
One loopful of an overnight culture of each test strain in Trypticase-soy broth (10^6 viable cells per ml) was streaked on heart infusion agar (HI-agar) containing graded concentrations of the test compound, and the minimal inhibitory concentration (MIC) was expressed in terms of ug/ml after incubation at 37° C. for 20 hours.

MIC: 0.05 µg/mL (≈ 0.132 µM)
SMILES: C[C@@H](O)[C@H]1C(=O)N2C(C(=O)O)=C(S[C@@H]3CN[C@H](c4nc[nH]n4)C3)[C@H](C)[C@H]12 [Test Compound, (4R,5S,6S )-6-[(1R) -1-Hydroxyethyl]-4-methyl-7-oxo-3-[(2S,4S)-2-(1H-1,2,4-triazol-3-yl)pyrrolidin-4-ylthio]-1-azabicyclo [3.2.0]hept-2-ene-2-carboxylic acid]
